Test results: patent US20080235824A1, “Use of Esterase Genes as Selectable Markers for Transforming Plant Cells” (priority 2006, published 2008)

Experiments:
[1] = test system: geranium petiole explants; assay: Survival of geranium petiole explants on regeneration medium with detergents; assay type: cell-based, Pelargonium X hortorum; conditions: for Survival of geranium petiole explants on regeneration medium: surviving/total explants
Description: Tween 20, a nonionic, fatty acid ester detergent, was evaluated as a potential selective agent for use in geranium (Pelargonium X hortorum) transformation experiments by placing geranium petiole explants into tissue culture with the addition to Tween 20 to the regeneration (shooting) medium normally used in geranium transformations (Robichon et al., 1995). Tween 20 was added at three concentrations: 1%, 0.1% and 0.01%. Each treatment consisted of 40 sterilized petiole explants placed in four tissue culture plates carrying 10 explants each. Survival of the explants was assayed weekly over four weeks on these media. Potential selective agent Span 20, also a nonionic, fatty acid ester detergent, was similarly evaluated, except that concentrations of 1%, 0.5% and 0.25% were evaluated over a twelve week period of time. The nonionic detergent Triton X-100, which is not a fatty acid ester detergent, was included for comparative purposes.

rice grain explants = assay: Survival of rice grain explants on regeneration medium with Span 20; assay type: cell-based, Oryza sativa japonica var. TP-309; conditions: for Survival of rice grain explants on regeneration medium: surviving/total explants
Description: Span 20 was evaluated as a potential selective agent for use in transformation of rice (Oryza sativa japonica var. TP-309) in a manner similar to that described in Examples 1 and 2, except that the regeneration (shooting) medium used was appropriate for regeneration of rice from callus produced from seeds (Hiei et al., 1997). Selection of rice normally requires longer periods of time than geranium or tomato.

[2] = test system: tobacco cultivar Xanthi leaf explants; assay: Agrobacterium transformation of tobacco with selection on detergent or kanamycin; assay type: cell-based, Nicotiana tabacum; conditions: for Transformation frequency (%): confirmed by PCR
Description: Transgenic tobacco (Nicotiana tabacum) cultivar “Xanthi” plants were created using the Agrobacterium tumefaciens DNA delivery method [Horsch et al., 1985] using pIPG833. Selection was on 1% or on 0.05% Tween 20 added to both shoot and root regeneration media. As a control for comparative purposes, pIPG786 was used (carrying the nptII gene for kanamycin resistance) for transformation and 100 micrograms/ml kanamycin was used for selection.
Transgenic tobacco (Nicotiana tabacum) cultivar “Xanthi” plants were created using the Agrobacterium tumefaciens DNA delivery method [Horsch et al., 1985] using pIPG833. Selection was on 1% or on 0.05% Span 20 added to both shoot and root regeneration media.
Transgenic tobacco (Nicotiana tabacum) cultivar “Xanthi” plants were created using the Agrobacterium tumefaciens DNA delivery method [Horsch et al., 1985] using pIPG875. Selection was on 1% Span 20 added to the shoot regeneration medium and 0.05% Span 20 added to the root regeneration medium.

[3] = test system: geranium cv. Avenida leaf petiole explants; assay: Agrobacterium transformation of geranium with selection on Span 20 or hygromycin; assay type: cell-based, Pelargonium X hortorum; conditions: for No. of rooted shoots / Transformation frequency (%) / No. of independent petiole explants forming shoots: geranium Avenida, pIPG833 bovine PGE, 160 explants; for Transformation frequency (%): confirmed by PCR; for No. of independent petiole explants forming shoots: half in root medium; for Leaf petioles killed: Span 20 at 1%
Description: Transgenic geranium (Pelargonium X hortorum) cv. “Avenida” plants were created using the Agrobacterium tumefaciens DNA delivery method [Riggs et al., 2001; Sun et al., 2006] using pIPG833. Selection of leaf petiole explants was on 1%, 0.5% and 0.25% Span 20 added to shoot regeneration medium; beginning after three weeks, any shoots that emerged were excised from the petiole piece and transferred to root regeneration medium supplemented with Span at one half the concentration used in the shoot regeneration medium. As a control for comparative purposes, pIPG835 was used (carrying the hygromycin antibiotic resistance gene) for transformation and 10 micrograms/ml hygromycin was used for selection. Span 20 at 1% concentration killed 35% of the leaf petioles after three weeks, and 100% of the petioles after 10 weeks, and no shoots emerged. Span 20 at 0.5% concentration was highly efficient for geranium transformation, allowing no escapes and giving the same confirmed transformation frequency as Span 20 at 0.25%.

[4] = test system: rice var. TP-309 callus produced from seeds; assay: Agrobacterium transformation of rice with selection on Span 20; assay type: cell-based, Oryza sativa japonica var. TP-309; conditions: for No. of rooted shoots / Transformation frequency (%) / No. of shoots emerged from seed-derived callus: rice TP-309, pIPG833 bovine PGE, 60 explants; for Transformation frequency (%): confirmed by PCR; for No. of shoots emerged from seed-derived callus: half in root medium
Description: Transgenic rice (Oryza sativa japonica var. TP-309) plants were created using the Agrobacterium tumefaciens DNA delivery method and pIPG833, using callus produced from seeds (Hiei et al., 1997). Selection of was on 1% and 0.5% Span 20 added to shoot regeneration medium; any shoots that emerged were excised from the callus and transferred to root regeneration medium supplemented with Span 20 at one half the concentration used in the shoot regeneration medium. Span 20 at 1% concentration killed over 90% of the callus pieces after 15 weeks and since no shoots emerged, the experiment was terminated. However, three shoots out of 60 rice seeds initially placed into tissue culture emerged on Span 20 and two of these were positive for bovine PGE.

[5] = test system: tobacco cultivar Xanthi leaf explants; assay: Agrobacterium transformation of tobacco with selection on detergent or kanamycin; assay type: cell-based, Nicotiana tabacum; conditions: pIPG833 bovine PGE, 0.5% Span 20, 70 explants
[6] = tobacco Xanthi, nematode lipase (pIPG875), 1% Span 20 shoot medium, 0.05% root medium, 50 explants
[7] = tobacco Xanthi, pIPG833 bovine PGE, 0.5% Span 20, 70 explants
[8] = tobacco Xanthi, pIPG833 bovine PGE, 1% Span 20, 75 explants

CCCCCCCCCCCC(=O)OCC(O)C1OCC(O)C1O (stereo not drawn) [Span 20]
Survival of geranium petiole explants on regeneration medium ([1]; 0.5% detergent, Week 1): 46/46 | Survival of geranium petiole explants on regeneration medium ([1]; 0.5% detergent, Week 3): 35/46 | Survival of geranium petiole explants on regeneration medium ([1]; 0.5% detergent, Week 7): 23/46 | Survival of geranium petiole explants on regeneration medium ([1]; 0.5% detergent, Week 12): 5/46 | Survival of geranium petiole explants on regeneration medium ([1]; 1% detergent, Week 1): 114/114 | Survival of geranium petiole explants on regeneration medium ([1]; 1% detergent, Week 3): 74/114 | Survival of geranium petiole explants on regeneration medium ([1]; 1% detergent, Week 7): 11/114 | Survival of geranium petiole explants on regeneration medium ([1]; 1% detergent, Week 12): 0/114 | Killing of geranium explants in tissue culture (in words) ([1]; summary of Table 1): required twelve weeks to completely kill all geranium explants at the 1% level | Survival of rice grain explants on regeneration medium (rice grain explants; 0.5% Span 20, Week 4): 60/60 | Survival of rice grain explants on regeneration medium (rice grain explants; 0.5% Span 20, Week 14): 12/60 | Survival of rice grain explants on regeneration medium (rice grain explants; 0.5% Span 20, Week 20): 2/60 | Survival of rice grain explants on regeneration medium (rice grain explants; 1% Span 20, Week 4): 60/60 | Survival of rice grain explants on regeneration medium (rice grain explants; 1% Span 20, Week 14): 5/60 | Survival of rice grain explants on regeneration medium (rice grain explants; 1% Span 20, Week 20): 0/60 | Killing of rice explants in tissue culture (in words) (rice grain explants; 1% Span 20, summary of Table 3): completely killed all rice explants in twenty weeks | Tissue provided with pIPG833 producing shoots ([2]; regeneration medium with 0.05% detergent): 41% | Tobacco leaf material provided with bovine PGE on pIPG833 producing green shoots ([2]; regeneration medium with 1% detergent): 17% | No. of independent calli forming shoots [2, 6]: 23 | No. of rooted shoots [2, 6]: 10 | Transformation frequency (%) [2, 6]: 39% | Transformation efficiency ([2]; tobacco Xanthi, pIPG833, detergent at the 0.05% level): 12% | No. of independent calli forming shoots [2, 7]: 29 | Transformation frequency (%) [2, 7]: 12% | No. of rooted shoots [2, 8]: 13 | Transformation frequency (%) [2, 8]: 8% | No. of independent calli forming shoots ([2]; tobacco Xanthi, pIPG833 bovine PGE, 1% Span 20 in shoot and root media, 75 explants): 13 | Fate of shoots on rooting medium ([2]; tobacco, pIPG875 nematode lipase, 0.05% Span 20 on rooting medium): more than half of the shoots died | No. of rooted shoots ([3]; 0.25% Span 20): 33 | Transformation frequency (%) ([3]; 0.25% Span 20): 4% | No. of independent petiole explants forming shoots ([3]; 0.25% Span 20 shoot medium): 33 | No. of rooted shoots ([3]; 0.5% Span 20): 6 | Transformation frequency (%) ([3]; 0.5% Span 20): 4% | No. of independent petiole explants forming shoots ([3]; 0.5% Span 20 shoot medium): 6 | No. of rooted shoots ([3]; 1% Span 20): 0 | Transformation frequency (%) ([3]; 1% Span 20): 0% | No. of independent petiole explants forming shoots ([3]; 1% Span 20 shoot medium): 0 | Nontransgenic escape plants ([3]; geranium, pIPG833, Span 20 at 0.25% in shooting medium and 0.125% in rooting medium): 81% | Leaf petioles killed ([3]; geranium, pIPG833, after 10 weeks): 100% | Leaf petioles killed ([3]; geranium, pIPG833, after three weeks): 35% | No. of rooted shoots ([4]; 0.5% Span 20): 2 | Transformation frequency (%) ([4]; 0.5% Span 20): 3% | No. of shoots emerged from seed-derived callus ([4]; 0.5% Span 20 shoot medium): 3 | No. of rooted shoots ([4]; 1% Span 20): 0 | Transformation frequency (%) ([4]; 1% Span 20): 0% | No. of shoots emerged from seed-derived callus ([4]; 1% Span 20 shoot medium): 0 | Callus pieces killed ([4]; rice, pIPG833, Span 20 at 1%, after 15 weeks): over 90% | No. of rooted shoots [5]: 28
